Data: PMC4674819, “Identification of Novel Inhibitors of Organic Anion Transporting Polypeptides 1B1 and 1B3 (OATP1B1 and OATP1B3) Using a Consensus Vote of Six Classification Models” (Molecular Pharmaceutics, 2015)
Values joined by “and” are separate entries in the source; they are usually repeats but may differ in a detail not shown here. Identical values can stand only once. Counter-ions that a name gives are not always drawn. Like-named read-outs stand apart in the source and are kept apart here.

Assays:
[1] = molecular target: T1, OATP1B1 (Homo sapiens, UniProt Q9Y6L6); assay: Inhibition of FMTX uptake in CHO cells stably transfected with OATP1B1; assay type: cell-based; settings: for IC50: CHO cells stably transfected with OATP1B1, 5 μM FMTX, 10 min, 37 °C, means ± SD of three independent experiments; for Correctness of prediction, first symbol (OATP1B1): inhibitor class from measured IC50 against the consensus prediction
T1 construct: host or cells: CHO (Chinese hamster ovary) cells, stably transfected
T1 sequence (Q9Y6L6 1-691): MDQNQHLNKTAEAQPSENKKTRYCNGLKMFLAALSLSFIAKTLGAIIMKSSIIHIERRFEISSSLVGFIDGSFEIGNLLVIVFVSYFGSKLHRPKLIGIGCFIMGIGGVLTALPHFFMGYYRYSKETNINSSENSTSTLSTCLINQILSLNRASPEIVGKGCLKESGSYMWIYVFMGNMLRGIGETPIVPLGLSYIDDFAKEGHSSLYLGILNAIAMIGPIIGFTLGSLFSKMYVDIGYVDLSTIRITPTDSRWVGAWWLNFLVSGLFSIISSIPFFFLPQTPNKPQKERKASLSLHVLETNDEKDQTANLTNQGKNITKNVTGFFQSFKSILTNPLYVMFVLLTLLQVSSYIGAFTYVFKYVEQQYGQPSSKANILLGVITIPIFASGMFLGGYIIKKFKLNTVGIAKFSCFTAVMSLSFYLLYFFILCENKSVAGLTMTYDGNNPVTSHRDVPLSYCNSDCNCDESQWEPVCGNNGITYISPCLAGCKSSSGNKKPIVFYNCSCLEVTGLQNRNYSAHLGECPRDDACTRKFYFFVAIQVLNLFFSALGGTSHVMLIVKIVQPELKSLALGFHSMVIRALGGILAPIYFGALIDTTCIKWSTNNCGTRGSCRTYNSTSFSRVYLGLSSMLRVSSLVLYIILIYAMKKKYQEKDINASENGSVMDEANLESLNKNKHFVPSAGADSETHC
Procedure: (§1) Chinese hamster ovary (CHO) cells that were stably transfected with OATP1B1 or OATP1B3 and wild-type CHO cells were provided by the University of Zurich, Switzerland, and have been extensively characterized previously.[24],[56],[57] Cells were grown in Dulbecco’s modified Eagle medium (DMEM) supplemented with 10% FCS, 50 μg/mL L-proline, 100 U/mL penicillin, and 100 μg/mL streptomycin. The culture media of the transfected CHO cells additionally contained 500 μg/mL Geneticin sulfate (G418) (Sigma-Aldrich, Munich, Germany). Media and supplements were obtained from Invitrogen (Karlsruhe, Germany). Cells were incubated at 5% CO2 and 37 °C. For uptake experiments, CHO cells were seeded in 24-well plates (BD Biosciences, Heidelberg, Germany) at a density of 25,000 cells/well. Uptake assays were generally performed on day 3 after seeding, when the cells had grown to confluence. 24 h before starting the transport experiments, cells were additionally treated with 5 mM sodium butyrate (Sigma-Aldrich, Munich, Germany) to induce gene expression. Prior to the uptake experiments, cells were rinsed twice with 2 mL of prewarmed (37 °C) uptake buffer (116.4 mM NaCl, 5.3 mM KCL, 1 mM NaH2PO4, 0.8 mM MgSO4, 5.5 mM D-glucose, and 20 mM Hepes, pH adjusted to 7.4). Uptake was initiated by adding 0.5 mL of uptake buffer containing 5 μM of the fluorescent OATP1B1/1B3 substrate FMTX[58] in the presence or absence of inhibitors. After 10 min culture at 37 °C, uptake was stopped by removing the uptake solution and washing the cells 3 times with ice-cold uptake buffer. The cells were then lysed with 0.5 mL of 0.5% Triton X-100 solution dissolved in PBS and placed on a plate shaker for 30 min. Fluorescence was measured in an Enspire Multimode plate reader (PerkinElmer, Waltham, MA) at an excitation wavelength of 485 and an emission wavelength of 528 nm.
(§2) IC50 values were determined by plotting the log inhibitor concentration against the net uptake rate and nonlinear regression of the data set using the equation [drawing 1] in which y is the net uptake rate (pmol/μg of protein/min), I is the inhibitor concentration (μM), s is the slope at the point of inversion, and a and b are the maximum and minimum values for cellular uptake (GraphPad Software, San Diego, CA, USA) . Net uptake was calculated for each inhibitor concentration as the difference in the uptake rates of the transporter-expressing and wild-type cell lines. Unless otherwise indicated, values are expressed as mean ± SD of three individual experiments. Significant differences from control values were determined using a Student’s paired t test at a significance level of p < 0.05.

[2] = molecular target: T2, OATP1B3 (Homo sapiens, UniProt Q9NPD5); assay: Inhibition of FMTX uptake in CHO cells stably transfected with OATP1B3; assay type: cell-based; settings: for Correctness of prediction, second symbol (OATP1B3): inhibitor class from measured IC50 against the consensus prediction
T2 construct: host or cells: CHO (Chinese hamster ovary) cells, stably transfected
T2 sequence (Q9NPD5 1-702): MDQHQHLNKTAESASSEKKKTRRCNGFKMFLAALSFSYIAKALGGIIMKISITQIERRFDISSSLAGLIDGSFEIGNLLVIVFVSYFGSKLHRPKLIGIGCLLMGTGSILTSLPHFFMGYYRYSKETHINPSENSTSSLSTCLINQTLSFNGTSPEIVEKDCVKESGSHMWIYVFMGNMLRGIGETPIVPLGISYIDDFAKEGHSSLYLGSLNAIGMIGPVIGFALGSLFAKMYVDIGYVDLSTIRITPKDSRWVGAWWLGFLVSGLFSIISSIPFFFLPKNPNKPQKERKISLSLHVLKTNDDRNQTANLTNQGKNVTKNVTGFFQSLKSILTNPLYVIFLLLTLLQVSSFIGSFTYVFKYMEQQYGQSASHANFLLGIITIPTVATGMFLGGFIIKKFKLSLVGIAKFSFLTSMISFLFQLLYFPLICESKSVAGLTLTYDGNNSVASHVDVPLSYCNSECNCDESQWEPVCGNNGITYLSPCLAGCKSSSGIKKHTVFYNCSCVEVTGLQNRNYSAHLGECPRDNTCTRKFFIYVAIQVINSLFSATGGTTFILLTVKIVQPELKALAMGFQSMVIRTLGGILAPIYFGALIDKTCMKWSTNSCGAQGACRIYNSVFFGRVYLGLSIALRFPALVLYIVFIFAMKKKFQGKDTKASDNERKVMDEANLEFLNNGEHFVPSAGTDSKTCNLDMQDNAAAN
Procedure: as §1, §2

[3] = cited from earlier work
[4] = test system: OATP1B3; settings: commercial library of 640 FDA-approved drugs; cited from earlier work
[5] = test system: OATP1B1; set-up: method as in PMID 25603031; settings: commercial library of 640 FDA-approved drugs; cited from earlier work
[6] = test system: OATP1B1; set-up: method as in PMID 22541068; settings: cited from earlier work
[7] = test system: OATP1B1; set-up: method as in PMID 23571415; settings: cited from earlier work
[8] = CHO cells stably transfected with OATP1B3, 5 μM FMTX, 10 min, 37 °C, means ± SD of three independent experiments, read-out: IC50 (μM) OATP1B3
[9] = remark printed after the IC50 value, read-out: OATP1B3 inhibition, remark in the IC50 cell

| SMILES | IC50 [1] [µM] | Correctness of prediction, first symbol (OATP1B1) [1] | IC50 [2, 8] | Correctness of prediction, second symbol (OATP1B3) [2] | hepatotoxicity, literature reports [3] | hyperbilirubinemia, reports in online sources and literature [3] | OATP1B1 inhibition, result in words ([1]; false negative of the OATP1B1 consensus model) | rank among OATP1B3 inhibitors in the screen of van de Steeg et al. [4] | rank among OATP1B1 inhibitors in the screen of van de Steeg et al. [5] | effect on liver injury, literature report ([3]; diabetic patients) | IC50 [2, 9] [µM] | hepatic serum enzymes, literature report [3] | OATP1B1 inhibition class as evaluated by Karlgren et al. [6] | OATP1B1 inhibition class as annotated by De Bruyn et al. [7] |
| --- | --- | --- | --- | --- | --- | --- | --- | --- | --- | --- | --- | --- | --- | --- |
| CC(C)C[C@H](NC(=O)[C@H](CCc1ccccc1)NC(=O)CN1CCOCC1)C(=O)N[C@@H](Cc1ccccc1)C(=O)N[C@@H](CC(C)C)C(=O)[C@@]1(C)CO1 [Carfilzomib] | 0.38 ± 0.12 | +++,+++ (strong inhibitor (IC50 values less than 1 μM)) | 0.9 ± 0.17 µM | +++,+++ (strong inhibitor (IC50 values less than 1 μM)) | – | – | – | – | – | – | – | – | – | – |
| CCCCc1oc2ccc(NS(C)(=O)=O)cc2c1C(=O)c1ccc(OCCCN(CCCC)CCCC)cc1 [Dronedarone hydrochlorid e] | 0.32 ± 0.07 | +++ (strong inhibitor (IC50 values less than 1 μM)) | 1.12 ± 0.2 µM | ++ (moderately strong inhibitor (IC50 values between 1 and 5 μM)) | some literature reports for hepatotoxicity | causing hyperbilirubinemia | – | – | – | – | – | – | – | – |
| Cc1cc2nc3c(=O)[nH]c(=O)nc-3n(C[C@H](O)[C@H](O)[C@H](O)COP(=O)(O)OP(=O)(O)OC[C@H]3O[C@@H](n4cnc5c(N)ncnc54)[C@H](O)[C@@H]3O)c2cc1C [Flavin adenine dinucleotide] | 6.62 ± 1.15 | x (wrong class prediction) | 10 ± 0.78 µM | + (moderate inhibitors (IC50 values between 5 and 10 μM)) | – | – | OATP1B1 inhibitor | – | – | – | – | – | – | – |
| CCC(=O)O[C@@H](O[P@](=O)(CCCCc1ccccc1)CC(=O)N1C[C@H](C2CCCCC2)C[C@H]1C(=O)O)C(C)C [Fosinopril sodium] | 6.28 ± 1.13 | +,+ (moderate inhibitors (IC50 values between 5 and 10 μM)) | 5.19 ± 0.98 µM | +,+ (moderate inhibitors (IC50 values between 5 and 10 μM)) | some literature reports for hepatotoxicity | causing hyperbilirubinemia | – | 20 strongest OATP1B1 and OATP1B3 inhibitors | 20 strongest OATP1B1 and OATP1B3 inhibitors | – | – | – | – | – |
| COc1ccc2c(c1)C(=O)N(CCc1ccc(S(=O)(=O)NC(=O)NC3CCCCC3)cc1)C(=O)C2(C)C [Gliquidone] | 7.45 ± 1.64 | + (moderate inhibitors (IC50 values between 5 and 10 μM)) | 1.17 ± 0.31 µM | ++ (moderately strong inhibitor (IC50 values between 1 and 5 μM)) | – | – | – | – | – | improve liver injury | – | – | – | – |
| CS(=O)(=O)CCNCc1ccc(-c2ccc3ncnc(Nc4ccc(OCc5cccc(F)c5)c(Cl)c4)c3c2)o1 [Lapatinib] | 0.37 ± 0.19 | +++ (strong inhibitor (IC50 values less than 1 μM)) | > 10 µM and 33.8 µM | -+ (slight inhibitors (IC50 values above 10 μM)) | some literature reports for hepatotoxicity | causing hyperbilirubinemia | – | – | – | – | > 10 | – | – | – |
| CN(C)c1cccc2c(S(=O)(=O)N[C@@H](Cc3ccc(OS(=O)(=O)c4cccc5c(N(C)C)cccc45)cc3)C(=O)O)cccc12 [N,O-Didansyl-L-Tyrosine] | 6.07 ± 0.56 | + (moderate inhibitors (IC50 values between 5 and 10 μM)) | 2.94 ± 0.75 µM | ++ (moderately strong inhibitor (IC50 values between 1 and 5 μM)) | – | – | – | – | – | – | – | – | – | – |
| CO[C@H]1C[C@@H]2CC[C@@H](C)[C@@](O)(O2)C(=O)C(=O)N2CCCC[C@H]2C(=O)O[C@H]([C@H](C)C[C@@H]2CC[C@@H](O)[C@H](OC)C2)CC(=O)[C@H](C)/C=C(\C)[C@@H](O)[C@@H](OC)C(=O)[C@H](C)C[C@H](C)/C=C/C=C/C=C/1C [Rapamycin (Sirolimus)] | 0.62 ± 0.19 | +++,+++ (strong inhibitor (IC50 values less than 1 μM)) | – | +++,+++ (strong inhibitor (IC50 values less than 1 μM)) | some literature reports for hepatotoxicity | causing hyperbilirubinemia | – | 20 strongest OATP1B1 and OATP1B3 inhibitors | 20 strongest OATP1B1 and OATP1B3 inhibitors | – | – | – | – | – |
| CC(=O)Nc1cccc(-n2c(=O)n(C3CC3)c(=O)c3c(Nc4ccc(I)cc4F)n(C)c(=O)c(C)c32)c1 [Trametinib] | 0.34 ± 0.09 | +++ (strong inhibitor (IC50 values less than 1 μM)) | > 10 µM and 30.8 µM | -+ (slight inhibitors (IC50 values above 10 μM)) | – | – | – | – | – | – | > 10 | elevating hepatic serum enzymes | – | – |
| COc1cc(C(=O)NS(=O)(=O)c2ccccc2C)ccc1Cc1cn(C)c2ccc(NC(=O)OC3CCCC3)cc12 [Zafirlukast] | 7.84 ± 0.49 | + (moderate inhibitors (IC50 values between 5 and 10 μM)) | 4.96 ± 0.92 µM | ++ (moderately strong inhibitor (IC50 values between 1 and 5 μM)) | some literature reports for hepatotoxicity | causing hyperbilirubinemia | – | – | – | – | – | – | – | – |
| O=C(O)c1cc(/N=N/c2ccc(S(=O)(=O)Nc3ccccn3)cc2)ccc1O [sulfasalazine] | – | – | – | – | – | – | – | – | – | – | – | – | inhibitor | noninhibitor |
